In PMC5622936, “Novel Carbonyl Analogs of Tamoxifen: Design, Synthesis, and Biological Evaluation” (Frontiers in Chemistry, 2017):

Experiments:
ERα = target: T1, ERα (Homo sapiens, UniProt P03372); test: fluorescence polarization competition, displacement of fluorescent estrogen ES2 (Beacon […]); format: binding; settings: 1 nM ES2 tracer, relative to estradiol = 100
T1 construct: gene ESR1; isolated recombinant human ERα (Invitrogen)
T1 sequence (P03372 1-595): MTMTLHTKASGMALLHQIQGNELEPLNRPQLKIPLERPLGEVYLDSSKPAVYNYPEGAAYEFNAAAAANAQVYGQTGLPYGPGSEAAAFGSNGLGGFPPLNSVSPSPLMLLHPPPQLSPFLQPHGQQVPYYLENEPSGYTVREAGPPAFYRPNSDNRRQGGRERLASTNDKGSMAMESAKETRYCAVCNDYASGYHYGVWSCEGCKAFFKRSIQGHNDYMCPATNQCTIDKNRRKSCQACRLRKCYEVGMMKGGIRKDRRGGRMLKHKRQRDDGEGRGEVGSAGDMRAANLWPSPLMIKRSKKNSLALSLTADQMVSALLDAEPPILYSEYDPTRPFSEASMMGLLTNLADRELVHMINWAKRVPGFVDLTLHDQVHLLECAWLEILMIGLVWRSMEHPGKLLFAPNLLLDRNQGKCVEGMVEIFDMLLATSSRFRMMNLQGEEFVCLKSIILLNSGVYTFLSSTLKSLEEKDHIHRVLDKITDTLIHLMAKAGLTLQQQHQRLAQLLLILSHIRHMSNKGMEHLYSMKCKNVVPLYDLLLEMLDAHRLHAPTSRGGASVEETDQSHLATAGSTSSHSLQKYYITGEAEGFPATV

ERβ = target: T2, ERβ (Homo sapiens, UniProt Q92731); test: as above; format: binding; settings: 1 nM ES2 tracer, relative to estradiol = 100
T2 construct: gene ESR2; isolated recombinant human ERβ (Invitrogen)
T2 sequence (Q92731 whole entry): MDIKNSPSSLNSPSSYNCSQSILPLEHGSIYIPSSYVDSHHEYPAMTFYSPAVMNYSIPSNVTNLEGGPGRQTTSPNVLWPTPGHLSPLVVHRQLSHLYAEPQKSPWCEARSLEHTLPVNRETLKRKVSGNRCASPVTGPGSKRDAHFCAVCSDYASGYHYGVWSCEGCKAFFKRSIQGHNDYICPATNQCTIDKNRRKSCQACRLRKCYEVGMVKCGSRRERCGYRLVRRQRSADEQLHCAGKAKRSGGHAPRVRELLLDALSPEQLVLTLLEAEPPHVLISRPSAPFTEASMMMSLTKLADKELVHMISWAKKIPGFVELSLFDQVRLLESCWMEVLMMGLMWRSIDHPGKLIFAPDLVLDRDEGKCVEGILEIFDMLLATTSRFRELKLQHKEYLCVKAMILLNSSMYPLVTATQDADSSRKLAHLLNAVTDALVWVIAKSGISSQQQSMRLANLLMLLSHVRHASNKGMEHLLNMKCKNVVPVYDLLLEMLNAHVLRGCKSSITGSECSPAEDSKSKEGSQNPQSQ

SMILES | RBAα^a (ERα; E/Z isomer tested not stated) | RBAβ^a (ERβ; E/Z isomer tested not stated) | RBAα^a (ERα) | RBAβ^a (ERβ)
CC/C(=C(\c1ccc(O)cc1)c1ccc(OC(=O)CCl)cc1)c1ccc(O)cc1 [6a, Z-Chloro-acetic acid 4-[1,2 bis-(4-hydroxy-phenyl)-but-1-enyl]-phenyl ester] |  |  | 120.08 ± 8.5 | 62.14 ± 4.3
CC/C(=C(\c1ccc(O)cc1)c1ccc(OC(=O)CN(C)C)cc1)c1ccc(O)cc1 [8a, Z-Dimethylamino-acetic acid 4-[1,2-bis-(4-hydroxy-phenyl)-but-1-enyl]-phenyl ester] |  |  | 101.35 ± 10.2 | 72.72 ± 2.1
CC/C(=C(\c1ccc(O)cc1)c1ccc(OC(=O)CN(CC)CC)cc1)c1ccc(O)cc1 [8b, Z-Diethylamino-acetic acid 4-[1,2-bis-(4-hydroxy-phenyl)-but-1-enyl]-phenyl ester] |  |  | 108.12 ± 11.9 | 77.37 ± 4.5
CC/C(=C(\c1ccc(O)cc1)c1ccc(OC(=O)CN2CCOCC2)cc1)c1ccc(O)cc1 [8c, Z-Morpholin-4-yl-acetic acid 4-[1,2-bis-(4-hydroxy-phenyl)-but-1-enyl]-phenyl ester] |  |  | 8.06 ± 0.9 | 16.79 ± 1.4
CC/C(=C(\c1ccc(O)cc1)c1ccc(C(=O)NCCBr)cc1)c1ccc(O)cc1 [compound 13, (E)-4-[1,2-bis-(4-hydroxy-phenyl)-but-1-enyl]-n-(2-bromo-ethyl)-benzamide] |  |  | 17.4 ± 3.0 | 8.40 ± 2.5

Second part, the compound after the results:

RBAα^a (ERα; E/Z isomer tested not stated) | RBAβ^a (ERβ; E/Z isomer tested not stated) | RBAα^a (ERα) | RBAβ^a (ERβ) | SMILES
12.2 ± 2.3 | 16.3 ± 3.9 |  |  | CCC(=C(c1ccc(O)cc1)c1ccc(C(=O)O)cc1)c1ccc(O)cc1 (mixture of isomers) [compound 10, 4-[1,2-bis-(4-hydroxy-phenyl)-but-1-enyl]-benzoic acid]
 |  | 96.37 ± 7.2 | 82.39 ± 4.9 | CC/C(=C(\c1ccc(O)cc1)c1ccc(OC(=O)CBr)cc1)c1ccc(O)cc1 [6b, Z-Bromo-acetic acid 4-[1,2 bis-(4-hydroxy-phenyl)-but-1-enyl]-phenyl ester]
 |  | 7.94 ± 0.6 | 6.15 ± 0.6 | CC/C(=C(\c1ccc(O)cc1)c1ccc(C(=O)NCCCBr)cc1)c1ccc(O)cc1 [compound 14, (E)-4-[1,2-bis-(4-hydroxy-phenyl)-but-1-enyl]-n-(3-bromo-propyl)-benzamide]
